Data from patent publication US20250129055A1, “GLUCOSIDE DERIVATIVE, AND PREPARATION METHOD THEREFOR AND APPLICATION THEREOF” (BEIJING INCREASE INNOVATIVE DRUG CO., LTD., priority 2020, published 2025).
Marks after values point to notes of the source that are not given here.

Experiments:
[1] = test system: spontaneous type 2 diabetes mellitus db/db mice; assay: Pharmacodynamic effect on spontaneous type 2 diabetes mellitus db/db mice; type: in vivo; conditions: for AUC of blood glucose: 0-24 h; for Concentration of blood glucose 0 h / Concentration of blood glucose 1 h / Concentration of blood glucose 2 h / Concentration of blood glucose 4 h / Concentration of blood glucose 6 h / Concentration of blood glucose 8 h / Concentration of blood glucose 24 h: fasting; for Concentration of blood glucose 0 h: 0 h before administration; for HbA1c: 28th day; for Random blood glucose, the 22nd day (title: 28th day): column head 22nd day
Experimental: Test example 4 Pharmacodynamic effect of the compounds of the present invention on spontaneous type 2 diabetes mellitus db/db mice
Spontaneous type 2 diabetes mellitus db/db mice and the normal control db/m mice (male, 5-6 weeks old) were used. The db/db mice were randomly divide into […] based on random blood glucose, fasting blood glucose, percentage of blood glucose reduction at 40 min, blood triglycerides, total blood cholesterol, and body weight, which were model group (con), positive control group and three groups of test compound with different doses (n=10).
Mice were administered with drugs by gavage.
The mice were fasted for 2 h, and then the 0 h (fasting) blood samples were collected. Then the mice in each group were administered with drugs by gavage, and blood samples were collected at 1 h, 2 h, 4 h, 6 h, 8 h and 24 h after administration. The blood glucose level was measured using glucose oxidase-peroxidase method, and the area under the blood glucose curve was calculated. Moreover, urine samples were collected 2 h and 4 h after administration to determine the concentration of urine glucose.
On the 15th day of continuous administration, before the mice were fasted, blood samples were collected to measure the random blood glucose. Then the mice were fasted and administered with the compounds, and after 2 h, blood samples were collected to measure the fasting blood glucose. […]
The data were expressed as mean±SEM (n=10). The comparison between multiple groups was performed by one-way analysis of variance, and the comparison between two groups was performed by Dunnett's t test. Statistical graphing was performed using Graphpad Prism software.

normal ICR mice = assay: Blood glucose level of normal mice after oral administration of glucose; type: in vivo; conditions: for Blood glucose 0 min: 0 min (fasting, 1 h after dosing); for Blood glucose 30 min: 30 min after glucose 2.0 g/kg; for Blood glucose 60 min: 60 min after glucose 2.0 g/kg; for Blood glucose 120 min: 120 min after glucose 2.0 g/kg; for AUC of blood glucose: oral glucose 2.0 g/kg; for Reduction of the area under the curve (AUC) of blood glucose: vs. normal control group
Experimental: Test Example 2 Evaluation of the in vivo activity of the compounds of the present invention: the effect on the blood glucose level of normal mice after oral administration of glucose
ICR mice (male, 18-20 g), purchased from Beijing Vital River Laboratories Co., Ltd., were fed adaptively for 4 days, and randomly divided into 4 groups, namely normal control group, positive control group, and two groups of test compounds, with 8 mice in each group.
The aforementioned stock solutions were diluted to appropriate concentrations with double distilled water.
The mice were fasted overnight. […] After 1 h, blood was collected at 0 min (fasting), and then mice in each group were administered with glucose (2.0 g/kg) solution by gavage. Blood was collected at 30 min, 60 min, and 120 min after glucose administration. The blood glucose level was measured using glucose oxidase-peroxidase method, and the area under the blood glucose curve was calculated.
The data were expressed as mean±SD. The comparison between multiple groups was performed by one-way analysis of variance, and the comparison between two groups was performed by Dunnett's t test. Statistical graphing was performed using Graphpad Prism software.

[2] = 0.5 mg/kg single administration
[3] = 1.0 mg/kg single administration
[4] = 2.0 mg/kg single administration
[5] = 22nd day of continuous administration, 0.5, 1.0 and 2.0 mg/kg

With `CS[C@H]1O[C@@H](c2ccc(C)c(Cc3ccc4c(c3)OCCO4)c2)[C@H](O)[C@@H](O)[C@@H]1O` (stereo in doubt) [Compound 2, 2-[3-(2,3-dihydro-1,4-benzodioxin-6-ylmethyl)-4-methylphenyl]-6-(methylthio)oxane-3,4,5-triol] the “AUC of blood glucose” value [1, 2] was 7046 ± 253.0 mg·h/dL, the “Concentration of blood glucose 0 h” value [1, 2] was 486.3 ± 32.9 mg/dL and the “Concentration of blood glucose 1 h” value [1, 2] was 386.8 ± 22.3 mg/dL. The “Concentration of blood glucose 2 h” value [1, 2] was 362.7 ± 27.2 mg/dL, the “Concentration of blood glucose 4 h” value [1, 2] was 252.3 ± 9.7 mg/dL and the “Concentration of blood glucose 6 h” value [1, 2] was 169.3 ± 4.4 mg/dL. For the same compound, the “Concentration of blood glucose 8 h” value [1, 2] was 134.2 ± 4.6 mg/dL, the “Concentration of blood glucose 24 h” value [1, 2] was 477.7 ± 25.9 mg/dL and the “Fasting blood glucose, the 15th day” value ([1]; 0.5 mg/kg) was 185.0 ± 13.6 mg/dL. For the same compound, the “Random blood glucose, the 15th day” value ([1]; 0.5 mg/kg) was 307.9 ± 18.4 mg/dL, the “Fasting blood glucose, the 22nd day” value ([1]; 0.5 mg/kg) was 193.8 ± 14.7 mg/dL and the HbA1c ([1]; 0.5 mg/kg) was 4.7 ± 0.3 %. For the same compound, the “Random blood glucose, the 22nd day (title: 28th day)” value (“Random blood glucose, the 22nd day” below) ([1]; 0.5 mg/kg) was 272.4 ± 16.5 mg/dL, the “AUC of blood glucose” value [1, 3] was 6952 ± 295.8 mg·h/dL and the “Concentration of blood glucose 0 h” value [1, 3] was 552.2 ± 24.2 mg/dL. For the same compound, the “Concentration of blood glucose 1 h” value [1, 3] was 412.5 ± 13.1 mg/dL, the “Concentration of blood glucose 2 h” value [1, 3] was 362.3 ± 23.7 mg/dL and the “Concentration of blood glucose 4 h” value [1, 3] was 256.0 ± 10.1 mg/dL. For the same compound, the “Concentration of blood glucose 6 h” value [1, 3] was 161.8 ± 6.9 mg/dL, the “Concentration of blood glucose 8 h” value [1, 3] was 124.3 ± 5.8 mg/dL and the “Concentration of blood glucose 24 h” value [1, 3] was 470.7 ± 25.6 mg/dL. The “Fasting blood glucose, the 15th day” value ([1]; 1.0 mg/kg) was 197.9 ± 11.2 mg/dL, the “Random blood glucose, the 15th day” value ([1]; 1.0 mg/kg) was 322.7 ± 11.1 mg/dL and the “Fasting blood glucose, the 22nd day” value ([1]; 1.0 mg/kg) was 204.1 ± 12.2 mg/dL. The HbA1c ([1]; 1.0 mg/kg) was 4.8 ± 0.2 %, the “Random blood glucose, the 22nd day” value ([1]; 1.0 mg/kg) was 258.4 ± 12.8 mg/dL and the “AUC of blood glucose” value [1, 4] was 6507 ± 269.6 mg·h/dL. For the same compound, the “Concentration of blood glucose 0 h” value [1, 4] was 519.3 ± 30.7 mg/dL, the “Concentration of blood glucose 1 h” value [1, 4] was 377.0 ± 9.0 mg/dL and the “Concentration of blood glucose 2 h” value [1, 4] was 309.7 ± 13.1 mg/dL. For the same compound, the “Concentration of blood glucose 4 h” value [1, 4] was 259.0 ± 14.9 mg/dL, the “Concentration of blood glucose 6 h” value [1, 4] was 153.3 ± 10.7 mg/dL and the “Concentration of blood glucose 8 h” value [1, 4] was 129.5 ± 12.8 mg/dL. The “Concentration of blood glucose 24 h” value [1, 4] was 427.0 ± 20.2 mg/dL, the “Fasting blood glucose, the 15th day” value ([1]; 2.0 mg/kg) was 162.7 ± 12.1 mg/dL and the “Random blood glucose, the 15th day” value ([1]; 2.0 mg/kg) was 240.4 ± 16.4 mg/dL. The “Fasting blood glucose, the 22nd day” value ([1]; 2.0 mg/kg) was 159.5 ± 8.5 mg/dL, the HbA1c ([1]; 2.0 mg/kg) was 4.0 ± 0.2 % and the “Random blood glucose, the 22nd day” value ([1]; 2.0 mg/kg) was 194.7 ± 14.0 mg/dL. For the same compound, the “Blood triglycerides (TG) level” value [1, 5] was “significantly lower”, the “Concentration of blood cholesterol” value [1, 5] was “no effect” and the “Concentration of urine glucose” value ([1]; 2 h after single administration, 0.5, 1.0 and 2.0 mg/kg) was “increased”. For the same compound, the “Concentration of urine glucose” value ([1]; 4 h after single administration, 0.5, 1.0 and 2.0 mg/kg) was “not increased”, the “Effect on body weight, food intake and water intake” value ([1]; continuous administration, 0.5, 1.0 and 2.0 mg/kg) was “no significant effect” and the “Duration of blood glucose lowering” value ([1]; single administration, 0.5, 1.0 and 2.0 mg/kg) was “up to 24 h”. The “Blood glucose 0 min” value (normal ICR mice; 2 mg/kg by gavage) was 75.9 ± 6.7 mg/dL, the “Blood glucose 30 min” value (normal ICR mice; 2 mg/kg by gavage) was 207.8 ± 13.6 mg/dL and the “Blood glucose 60 min” value (normal ICR mice; 2 mg/kg by gavage) was 119.3 ± 12.5 mg/dL. For the same compound, the “Blood glucose 120 min” value (normal ICR mice; 2 mg/kg by gavage) was 73.0 ± 11.4 mg/dL, the “AUC of blood glucose” value (normal ICR mice; 2 mg/kg by gavage) was 248.8 ± 18.0 mg·h/dL and the “Reduction of the area under the curve (AUC) of blood glucose” value (shortened to “Reduction of the area under the curve”) (normal ICR mice; 2 mg/kg) was 37.4%. For the same compound, the “Blood glucose 0 min” value (normal ICR mice; 4 mg/kg by gavage) was 63.6 ± 8.3 mg/dL, the “Blood glucose 30 min” value (normal ICR mice; 4 mg/kg by gavage) was 189.5 ± 14.3 mg/dL and the “Blood glucose 60 min” value (normal ICR mice; 4 mg/kg by gavage) was 103.2 ± 5.1 mg/dL. For the same compound, the “Blood glucose 120 min” value (normal ICR mice; 4 mg/kg by gavage) was 78.2 ± 13.9 mg/dL, the “AUC of blood glucose” value (normal ICR mice; 4 mg/kg by gavage) was 227.1 ± 13.1 mg·h/dL and the “Reduction of the area under the curve” value (normal ICR mice; 4 mg/kg) was 42.9%.
`CCOc1ccc(Cc2cc([C@@H]3O[C@H](CO)[C@@H](O)[C@H](O)[C@H]3O)ccc2Cl)cc1` [Dapagliflozin, reference compound] was tested, and the “AUC of blood glucose” value [1, 4] was 8866 ± 361.1***^ mg/dl · h, the “Concentration of blood glucose 0 h” value [1, 4] was 488.5 ± 29.2 mg/dL and the “Concentration of blood glucose 1 h” value [1, 4] was 386.4 ± 16.5 mg/dL. For the same compound, the “Concentration of blood glucose 2 h” value [1, 4] was 333.8 ± 13.9 mg/dL, the “Concentration of blood glucose 4 h” value [1, 4] was 265.8 ± 9.1 mg/dL and the “Concentration of blood glucose 6 h” value [1, 4] was 209.3 ± 8.0 ^ mg/dl. For the same compound, the “Concentration of blood glucose 8 h” value [1, 4] was 176.7 ± 10.2 mg/dL, the “Concentration of blood glucose 24 h” value [1, 4] was 649.4 ± 40.0 mg/dL and the “Fasting blood glucose, the 15th day” value ([1]; 2.0 mg/kg) was 183.0 ± 11.2 mg/dL. For the same compound, the “Random blood glucose, the 15th day” value ([1]; 2.0 mg/kg) was 344.7 ± 24.1 mg/dL, the “Fasting blood glucose, the 22nd day” value ([1]; 2.0 mg/kg) was 191.8 ± 11.0 mg/dL and the HbA1c ([1]; 2.0 mg/kg) was 5.1 ± 0.3 %. The “Random blood glucose, the 22nd day” value ([1]; 2.0 mg/kg) was 317.0 ± 16.4 mg/dL, the “Blood glucose 0 min” value (normal ICR mice; 2 mg/kg by gavage) was 71.8 ± 6.6 mg/dL and the “Blood glucose 30 min” value (normal ICR mice; 2 mg/kg by gavage) was 213.2 ± 26.6 mg/dL. For the same compound, the “Blood glucose 60 min” value (normal ICR mice; 2 mg/kg by gavage) was 122.2 ± 16.1 mg/dL, the “Blood glucose 120 min” value (normal ICR mice; 2 mg/kg by gavage) was 83.0 ± 13.5 mg/dL and the “AUC of blood glucose” value (normal ICR mice; 2 mg/kg by gavage) was 257.7 ± 24.0 mg·h/dL. The “Reduction of the area under the curve” value (normal ICR mice; 2 mg/kg) was 35.2%.
